Test results as given in article PMC5472308, “Characterization of the regulation of a plant polysaccharide utilization operon and its role in biofilm formation in Bacillus subtilis” (PLoS ONE, 2017).

Molecular target: T1, LacZ (Escherichia coli, UniProt P00722)
T1 construct: lacZ reporter of plasmid pDG268 (PganS-lacZ at amyE) expressed in B. subtilis YC1074 (ganR R20H, ganA deleted); cleared sonicated lysate
Format: biochemical
Settings: 2.5 mM ONPG; Z buffer; qualitative

T1 sequence (P00722 2-1024): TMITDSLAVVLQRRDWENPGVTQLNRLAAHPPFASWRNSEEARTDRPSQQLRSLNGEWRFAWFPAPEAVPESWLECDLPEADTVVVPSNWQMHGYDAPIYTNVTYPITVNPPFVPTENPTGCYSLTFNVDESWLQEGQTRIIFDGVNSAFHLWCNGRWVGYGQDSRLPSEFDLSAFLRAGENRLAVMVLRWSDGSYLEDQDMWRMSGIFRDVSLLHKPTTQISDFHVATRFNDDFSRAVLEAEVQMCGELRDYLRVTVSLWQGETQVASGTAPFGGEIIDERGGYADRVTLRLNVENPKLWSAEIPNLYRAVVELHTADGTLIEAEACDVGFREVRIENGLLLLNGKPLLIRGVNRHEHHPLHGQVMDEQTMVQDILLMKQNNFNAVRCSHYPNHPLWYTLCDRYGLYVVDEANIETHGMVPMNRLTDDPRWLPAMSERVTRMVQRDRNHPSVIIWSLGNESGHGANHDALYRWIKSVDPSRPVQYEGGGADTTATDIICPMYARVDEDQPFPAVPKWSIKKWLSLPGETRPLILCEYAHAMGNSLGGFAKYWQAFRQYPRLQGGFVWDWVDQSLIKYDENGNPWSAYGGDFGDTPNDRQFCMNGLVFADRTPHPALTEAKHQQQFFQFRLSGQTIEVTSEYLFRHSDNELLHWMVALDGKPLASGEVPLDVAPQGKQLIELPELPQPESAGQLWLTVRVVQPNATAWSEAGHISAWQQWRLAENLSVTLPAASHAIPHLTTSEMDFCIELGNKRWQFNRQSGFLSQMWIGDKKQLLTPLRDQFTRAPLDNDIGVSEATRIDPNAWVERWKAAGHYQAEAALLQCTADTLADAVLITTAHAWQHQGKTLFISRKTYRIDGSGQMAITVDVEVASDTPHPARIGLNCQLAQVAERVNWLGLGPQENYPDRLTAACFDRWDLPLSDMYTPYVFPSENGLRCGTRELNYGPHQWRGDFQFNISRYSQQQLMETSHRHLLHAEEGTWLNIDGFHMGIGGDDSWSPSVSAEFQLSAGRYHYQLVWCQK

OC[C@H]1OC(O)[C@H](O)[C@@H](O)[C@H]1O (stereo partly shown) [galactose]
% activity with 2.5-20 mM galactose: we only observed very weak inhibition of catalytic activities of LacZ
